Results reported in patent publication EP0835868A1, “2-Aryl-3-aminoaryloxynaphthyl compounds, intermediates, compositions and methods” (ELI LILLY AND COMPANY, priority 1996, dated 1998).
Counter-ions that a name gives are not always drawn. Marks after values point to notes of the source that are not given here.

Key:
Eosinophil peroxidase = experiment: Uterine Eosinophil Peroxidase (EPO) Assay on uteri of dosed ovariectomized rats; assay type: in vivo, Sprague Dawley rats; conditions: daily for 4 days, OVX rats
Description: (§1) Seventy-five day old female Sprague Dawley rats (weight range of 200 to 225g) are obtained from Charles River Laboratories (Portage, MI). The animals are either bilaterally ovariectomized (OVX) or exposed to a Sham surgical procedure at Charles River Laboratories, and then shipped after one week. Upon arrival, they are housed in metal hanging cages in groups of 3 or 4 per cage and have ad libitum access to food (calcium content approximately 0.5%) and water for one week. Room temperature is maintained at 22.2° ± 1.7° C with a minimum relative humidity of 40%. The photoperiod in the room is 12 hours light and 12 hours dark. Dosing Regimen Tissue Collection. After a one week acclimation period (therefore, two weeks post-OVX) daily dosing with test compound is initiated. 17a-ethynyl estradiol or the test compound are given orally, unless otherwise stated, as a suspension in 1% carboxymethylcellulose or dissolved in 20% cyclodextrin. Animals are dosed daily for 4 days. Following the dosing regimen, animals are weighed and anesthetized with a ketamine: Xylazine (2:1, V:V) mixture and a blood sample is collected by cardiac puncture. The animals are then sacrificed by asphyxiation with CO2, the uterus is removed through a midline incision, and a wet uterine weight is determined.
(§2) Cholesterol Analysis. Blood samples are allowed to clot at ambient temperature for 2 hours, and serum is obtained following centrifugation for 10 minutes at 3000 rpm. Serum cholesterol is determined using a Boehringer Mannheim Diagnostics high performance cholesterol assay. Briefly, the cholesterol is oxidized to cholest-4-en-3-one […]. The hydrogen peroxide is then reacted with phenol and 4-aminophenazone in the presence of peroxidase to produce a p-quinone imine dye, which is read spectrophotemetrically at 500 nm. Cholesterol concentration is then calculated against a standard curve. The entire assay is automated using a Biomek Automated Workstation. Uterine Eosinophil Peroxidase (EPO) Assay. Uteri are kept at 4° C until time of enzymatic analysis. The uteri are then homogenized in 50 volumes of 50 mM Tris buffer (pH - 8.0) containing 0.005% Triton X-100. Upon addition of 0.01% hydrogen peroxide and 10 mM O-phenylenediamine (final concentrations) in Tris buffer, increase in absorbance is monitored for one minute at 450 nm. The presence of eosinophils in the uterus is an indication of estrogenic activity of a compound. The maximal velocity of a 15 second interval is determined over the initial, linear portion of the reaction curve. Source of Compound: 17a-ethynyl estradiol was obtained from Sigma Chemical Co., St. Louis, MO.

[1] = system: female Sprague Dawley rats; experiment: Estrogen deprivation model in ovariectomized rats: serum cholesterol analysis; assay type: in vivo; conditions: daily for 4 days, OVX rats, decrease versus ovariectomized controls
Experimental: (§3) In the examples illustrating the methods, an estrogen deprivation model was used in which effects of different treatments upon circulating lipids were determined.
as §1, §2

[2] = system: female Sprague Dawley rats; experiment: Estrogen deprivation model in ovariectomized rats: wet uterine weight; assay type: in vivo; conditions: daily for 4 days, OVX rats, % increase versus the ovariectomized controls
Experimental: as §3, §1

Compound	Uterine Eosinophil (Vmax) (Eosinophil peroxidase; 0.1 mg/kg PO)	Uterine Eosinophil (Vmax) (Eosinophil peroxidase; 1.0 mg/kg PO)	Uterine Eosinophil (Vmax) (Eosinophil peroxidase; 10.0 mg/kg PO)	Serum Cholesterol (% Dec.) ([1]; 0.1 mg/kg PO)	Serum Cholesterol (% Dec.) ([1]; 1.0 mg/kg PO)	Serum Cholesterol (% Dec.) ([1]; 10.0 mg/kg PO)	Uterine Weight (% Inc.) ([2]; 0.1 mg/kg PO)	Uterine Weight (% Inc.) ([2]; 1.0 mg/kg PO)	Uterine Weight (% Inc.) ([2]; 10.0 mg/kg PO)	Uterine Eosinophil (Vmax) (Eosinophil peroxidase; 0.01 mg/kg PO)	Serum Cholesterol (% Dec.) ([1]; 0.01 mg/kg PO)	Uterine Weight (% Inc.) ([2]; 0.01 mg/kg PO)
O=C(CN1CCCCC1)Nc1ccc(Oc2c(-c3ccc(O)cc3)ccc3cc(O)ccc23)cc1 [Example 2, 1-[4-[2-(1-Piperidinyl)acetylamido]phenoxy-2-(4-hydroxyphenyl)-6-hydroxynaphthalene Hydrochloride]	1.8	11.7	71.1*	27 % Dec.	66.4* % Dec.	57.6* % Dec.	13.6 % Inc.	59.0* % Inc.	107.0* % Inc.	–	–	–
Oc1ccc(-c2ccc3cc(O)ccc3c2Oc2ccc(NCCN3CCCCC3)cc2)cc1 [Example 4, 1-[4-[2-(1-Piperidinyl)ethylamino]phenoxy]-2-(4-hydroxyphenyl)-6-hydroxynaphthalene]	4.5	5.4	–	59.9* % Dec.	75.3* % Dec.	–	39.8* % Inc.	25.4 % Inc.	–	2.7	20.8* % Dec.	7.1 % Inc.
C#C[C@]1(O)CC[C@H]2[C@@H]3CCc4cc(O)ccc4[C@H]3CC[C@@]21C [EE2, 17-a-Ethynyl-estradiol, reference compound]	54.6*	–	–	75.9* % Dec.	–	–	96.0* % Inc.	–	–	–	–	–
